Source: ChEMBL document CHEMBL1811912, “Human HDAC isoform selectivity achieved via exploitation of the acetate release channel with structurally unique small molecule inhibitors” (Bioorg Med Chem, 2011)

Key:
Histone deacetylase 2 = Histone deacetylase 2 (Homo sapiens, UniProt Q92769); experiment: Inhibition of human HDAC2 using rhodamine as substrate after 1 hrs by fluorescence assay
[1] = target: T1, Protein deacetylase HDAC6 (Homo sapiens, UniProt Q9UBN7); experiment: Inhibition of human HDAC6 using rhodamine as substrate after 1 hrs by fluorescence assay
T1 sequence (Q9UBN7 whole entry): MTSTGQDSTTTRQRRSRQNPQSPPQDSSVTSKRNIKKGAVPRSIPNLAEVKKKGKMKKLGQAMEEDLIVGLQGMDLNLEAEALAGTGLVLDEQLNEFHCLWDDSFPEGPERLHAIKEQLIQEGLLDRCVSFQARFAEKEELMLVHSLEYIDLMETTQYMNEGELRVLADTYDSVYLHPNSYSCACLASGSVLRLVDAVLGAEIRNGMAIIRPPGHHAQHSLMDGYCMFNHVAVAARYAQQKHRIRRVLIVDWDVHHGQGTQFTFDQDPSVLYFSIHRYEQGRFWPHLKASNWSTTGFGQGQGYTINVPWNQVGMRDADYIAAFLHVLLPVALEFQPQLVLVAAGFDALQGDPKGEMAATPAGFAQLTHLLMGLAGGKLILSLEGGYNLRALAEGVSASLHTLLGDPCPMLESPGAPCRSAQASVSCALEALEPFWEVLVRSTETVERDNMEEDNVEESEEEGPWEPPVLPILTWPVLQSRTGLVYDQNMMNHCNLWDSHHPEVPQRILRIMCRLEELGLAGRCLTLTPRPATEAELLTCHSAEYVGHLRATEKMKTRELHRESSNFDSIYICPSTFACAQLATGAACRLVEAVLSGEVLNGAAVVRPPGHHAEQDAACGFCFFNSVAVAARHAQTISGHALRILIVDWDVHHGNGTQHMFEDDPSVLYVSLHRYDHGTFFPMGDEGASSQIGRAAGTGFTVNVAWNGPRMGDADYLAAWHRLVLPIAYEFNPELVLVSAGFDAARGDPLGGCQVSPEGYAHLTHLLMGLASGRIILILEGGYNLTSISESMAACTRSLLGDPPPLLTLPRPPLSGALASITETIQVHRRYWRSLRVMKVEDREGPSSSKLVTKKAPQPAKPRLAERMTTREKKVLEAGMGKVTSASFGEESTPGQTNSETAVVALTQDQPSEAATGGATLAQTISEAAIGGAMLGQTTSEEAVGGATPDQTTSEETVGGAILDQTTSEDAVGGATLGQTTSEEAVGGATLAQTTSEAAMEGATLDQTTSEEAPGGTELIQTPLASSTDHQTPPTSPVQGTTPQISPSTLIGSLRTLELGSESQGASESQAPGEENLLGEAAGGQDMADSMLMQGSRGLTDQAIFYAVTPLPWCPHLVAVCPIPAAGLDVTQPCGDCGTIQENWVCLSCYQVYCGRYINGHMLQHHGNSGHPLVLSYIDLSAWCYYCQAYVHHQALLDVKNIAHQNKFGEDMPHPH

Histone deacetylase 1 = Histone deacetylase 1 (Homo sapiens, UniProt Q13547); experiment: Inhibition of human HDAC1 using rhodamine as substrate after 1 hrs by fluorescence assay
Chain of Histone deacetylase 1 (Q13547 whole entry): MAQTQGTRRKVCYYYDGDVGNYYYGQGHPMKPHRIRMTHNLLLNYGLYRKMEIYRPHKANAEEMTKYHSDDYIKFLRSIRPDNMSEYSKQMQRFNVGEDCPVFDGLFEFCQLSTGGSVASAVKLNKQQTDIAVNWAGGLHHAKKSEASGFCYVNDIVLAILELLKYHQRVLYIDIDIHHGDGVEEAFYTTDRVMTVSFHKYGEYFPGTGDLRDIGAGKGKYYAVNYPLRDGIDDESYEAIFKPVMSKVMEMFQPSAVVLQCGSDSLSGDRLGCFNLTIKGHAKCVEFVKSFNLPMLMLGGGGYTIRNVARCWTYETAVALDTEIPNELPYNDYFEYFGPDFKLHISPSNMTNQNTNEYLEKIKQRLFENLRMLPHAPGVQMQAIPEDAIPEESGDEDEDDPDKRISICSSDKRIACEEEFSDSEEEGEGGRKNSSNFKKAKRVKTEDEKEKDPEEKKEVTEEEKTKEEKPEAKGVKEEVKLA

Chain of Histone deacetylase 2 (Q92769 whole entry): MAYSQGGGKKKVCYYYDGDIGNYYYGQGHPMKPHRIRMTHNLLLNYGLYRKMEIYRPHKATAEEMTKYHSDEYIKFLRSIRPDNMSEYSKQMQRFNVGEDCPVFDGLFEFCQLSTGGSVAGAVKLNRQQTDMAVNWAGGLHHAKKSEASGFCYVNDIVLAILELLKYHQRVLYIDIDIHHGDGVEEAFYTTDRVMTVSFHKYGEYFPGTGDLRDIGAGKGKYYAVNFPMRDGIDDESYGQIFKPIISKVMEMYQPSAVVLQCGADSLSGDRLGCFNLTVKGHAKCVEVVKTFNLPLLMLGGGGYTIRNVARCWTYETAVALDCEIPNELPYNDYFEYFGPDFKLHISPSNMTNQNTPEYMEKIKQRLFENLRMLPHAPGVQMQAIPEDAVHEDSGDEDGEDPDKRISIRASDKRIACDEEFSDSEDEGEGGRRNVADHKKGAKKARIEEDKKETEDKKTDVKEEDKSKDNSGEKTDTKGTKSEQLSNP

IC50 (Histone deacetylase 2) [µM] | IC50 [1] [µM] | IC50 (Histone deacetylase 1) [µM] | Structure (SMILES)
3.9 | > 30 |  | N[C@H](Cc1ccc(Cl)cc1Cl)C(=O)N1Cc2ccccc2C1
> 30 | > 30 | > 30 | N[C@H](Cc1cccc(Cl)c1)C(=O)N1CCN(C(=O)c2cc(F)ccc2F)CC1
